Reference: patent US20070003509A1, “Skin treatment composition” (priority 2005, published 2007)
Marks after values point to notes of the source that are not given here.

Columns and labels:
[1] = test system: cellulite (thigh); assay: Clinical trial of anticellulite activity by topical application; format: in vivo, human; conditions: 0.2% formulation of Example 2, two times a day for 2 months, six female subjects
Excerpt: Six female subjects were selected for a clinical trial of anticellulite activity of salicyloyl-phytoshingosine by topical application.
The scale ranged from 0 to 4, being 0=No cellulite; 1=Small bumps or depressions; 2=Striations and bumps; 3=Pronounced lumpiness of the skin and striations; 4=All of the above plus hard sub-surface nodules. All tested volunteers had cellulite with grades 1 and 2. The subjects were divided in 2 groups of 3 individuals
Group 1 was instructed to apply a formulation described in Example 2 containing 0.2% salicloyl-phytosphingosine on the right thigh and the vehicle formulation without salicyloyl-phytoshingosine in the left thigh Group 2 was instructed to apply the formulations vice versa. The subjects were taught to carry out the application two times a day, at morning and at night for a period of 2 months. Afterwards the cellulite condition was evaluated by comparison of the thigh diameter, the clinical degrading and the subjective improvement.

[2] = test system: pro-collagen I in the papillary dermis; assay: Patch-test protocol, immunohistochemistry of pro-collagen I in photoaged skin in vivo; parameters: species or system human; conditions: for Pro-collagen I expression in the papillary dermis, Mean (degree of immunostaining): scale 0-4, N=5
Excerpt: (§1) It was done by identification of Procollagen-I and Fibrillin upregulation and matrix metalloprotease-1 (MMP-1) down-regulation in Skin In Vivo. Experiments were done following topical Retinoic Acid (RA) treatment for comparative purposes and analysis of the effects of salicyloyl-phytosphingosine and phytosphingosine compared with retinoic acid with respect to the expression of dermal markers in vivo. See: Watson R E B, Craven N M, Kang S, Jones C J P, Kielty C M, Griffiths C E M. A short term screening protocol, using fibrillin-1 as a […] molecule for photoageing repair agents. J Invest Dermatol, 116: 672-678, 2001, for published methodology.
(§2) Five healthy, but clinically photoaged volunteers, were recruited (age range 54-71 years). Test substances were applied separately under standard 6 mm diameter Finn chambers to the extensor aspect of the forearm: these were vehicle base (15 μl/chamber), 0.2% PS-SLC (15 μl/chamber), 0.05% PS-SLC (15 μl/chamber), 0.2% phytosphingosine (15 μl/chamber) and 0.025% all-tans RA (Retin-A® cream, Janssen-Cilag Ltd., 15 μl/chamber). Formulations were applied to clean skin on days 1 and 4 of the assay. All-trans RA was applied to an untreated site on day 4. On day 8, Finn chambers were removed and 3 mm punch biopsies were obtained under 1% lignocaine anaesthesia from each of the test site. Biopsies were embedded in OCT compound (Tissue-Tek®, Miles, Ind., USA) and snap frozen in liquid nitrogen. Biopsy sites were sutured with 1×4/o ethilon and subjects instructed to return between 7-10 days for suture removal. Frozen sections were […] at a thickness of 10 μm (OTF cryostat, Bright Instruments Ltd.) and mounted onto gelatin-coated slides prior to histological analysis. A number of extracellular matrix (ECM) molecules known to be altered in photoaged skin were assayed by immunohistochemistry to detail the potential effects of the novel formulations. The primary marker of outcome was the distribution of fibrillin-rich microfibrils proximal to the dermal-epidermal junction (DEJ). Also assessed was the distribution of procollagen-1 within the dermis.
(§3) Matrix metalloprotease-1 (MMP-1) levels were also assessed. Whilst the fibrillin and procollagen-1 should increase for an antiaging active levels of MMP-1 should decrease for an antiaging active, i.e., increased synthesis of dermal structural proteins together with reduced levels of the proteases that degrade them. For each analysis, the marker was identified in each of three sections (i.e., 3 sections/treatment/volunteer). Sections were optimally fixed. Routinely, following hydration in tris-buffered saline (TBS; 100 mM Tris, 150 mM NaCl), sections were solublised by addition of 0.5% Triton-X100 (10 minutes). Following washing, endogenous peroxidase activity was abolished by incubation with an excess of hydrogen peroxide in methanol (30 minutes). Sections were blocked prior to application of primary antibody (overnight incubation @4° C.). Negative controls were concurrently incubated with either block alone or control serum. Following incubation, sections were stringently washed with TBS prior to application of an appropriate biotinylated secondary antibody. This was further conjugated to the enzyme horseradish peroxidase using a commercially available kit following the manufacturers instructions (ABC Elite System, Vector Laboratory, Peterborough UK). Antibody was localised using Vector SG® as chromogen (10 minute incubation)—washing in TBS quenched this reaction. Sections were counterstained using Nuclear Fast Red and finally dehydrated through serial alcohols, cleared and permanently mounted.
(§4) Sections were randomised, blinded and examined on a Nikon OPTIPHOT microscope (Tokyo, Japan). For assessment of ECM and cornified envelope components, the degree of immunostaining was assessed on a 5 point semi-quantitative scale where 0=no staining and 4=maximal staining. Four sections (including control) were examined per subject per site. […]

[3] = test system: fibrillin-rich microfibrils proximal to the dermal-epidermal junction (DEJ); assay: Patch-test protocol, immunohistochemistry of fibrillin-rich microfibrils in photoaged skin in vivo; parameters: species or system human; conditions: for Fibrillin expression proximal to the DEJ, Mean (degree of immunostaining): scale 0-4
Excerpt: as §1, §2, §3, §4

[4] = test system: Matrix metalloprotease-1 (MMP-1); assay: Patch-test protocol, immunohistochemistry of MMP-1 in photoaged skin in vivo; parameters: species or system human; conditions: for MMP-1 expression, Mean (MMP-1 IHC): N=5
Excerpt: as §1, §2, §3, §4

[5] = Patch-test protocol, erythema at the site of application; format: in vivo, human; conditions: occluded patch test on forearm, photoaged volunteers
Experimental: as §2, with “The primary marker of outcome was the distribution of fibrillin-rich microfibrils proximal to the dermal-epidermal junction (DEJ).” left out

[6] = 0.05% topical under Finn chamber, applied days 1 and 4, biopsy day 8
[7] = 0.2% topical under Finn chamber, applied days 1 and 4, biopsy day 8
[8] = 0.2% topical under Finn chamber, applied days 1 and 4, biopsy day 8, N=5 photoaged volunteers
[9] = 0.2% topical occluded, vs vehicle
[10] = topical occluded application, concentration not given
[11] = 0.025% (Retin-A cream), applied day 4, biopsy day 8

Erythema at the site of application [5]	Compound	Clinical grading (cellulite) reduction in comparison with the vehicle treated thigh [1] [%]	Subjective improvement increase in comparison with the vehicle treated thigh [1] [%]	Thigh diameter reduction in comparison with the vehicle treated thigh [1] [%]	Pro-collagen I expression in the papillary dermis, Mean (degree of immunostaining) [2, 6]	Pro-collagen I expression in the papillary dermis, Mean (degree of immunostaining) [2, 7]	Fibrillin expression proximal to the DEJ, Mean (degree of immunostaining) ([3]; 0.05% topical under Finn chamber, applied days 1 and 4, biopsy day 8, N=5)	Fibrillin expression proximal to the DEJ, Mean (degree of immunostaining) [3, 8]	MMP-1 expression, Mean (MMP-1 IHC) [4, 6]	MMP-1 expression, Mean (MMP-1 IHC) [4, 7]	pCI content in the papillary dermis (in words) [2, 9]	Effects on procollagen I in the papillary dermis (study summary, in words) [2, 10]	Fibrillin-1 deposition proximal to the DEJ (in words) [3, 9]	Fibrillin-rich microfibrillar network proximal to the DEJ of photoaged skin (study summary, in words) [3, 10]	MMP-1 levels (in words) [4, 9]	Pro-collagen I expression in the papillary dermis, Mean (degree of immunostaining) [2, 11]	Fibrillin expression proximal to the DEJ, Mean (degree of immunostaining) ([3]; 0.025% (Retin-A cream) under Finn chamber, applied day 4, biopsy day 8, N=5)	MMP-1 expression, Mean (MMP-1 IHC) [4, 11]	Expression of MMP-1 (in words) ([4]; 0.025% all-trans RA, 4 day occluded application)
	CCCCCCCCCCCCCC[C@@H](O)[C@@H](O)[C@H](CO)NC(=O)c1ccccc1O [PS-SLC, salicyloyl-phytosphingosine]	27	34	4	2.2472	2.7790*	1.7778**	2.267*	18.40*	22.72*									
	CCCCCCCCCCCCCC[C@@H](O)[C@@H](O)[C@@H](N)CO [PS, phytosphingosine]					2.5556**		2.0000**		33.23	significantly increased	beneficial effects	significant induction of fibrillin expression	restores	no effect				
marked erythema	CC1=C(/C=C/C(C)=C/C=C/C(C)=C/C(=O)O)C(C)(C)CCC1 [RA, retinoic acid]															2.2667	2.8625**	36.82	no effect
